Results on two molecules are retold here after patent US20060281807A1, “Quassinoid compositions for the treatment of cancer and other proliferative diseases” (Tapestry Pharmaceuticals, Inc., priority 2005, published 2006).

≈ marks a conversion by molar mass, not a printed value. Where “and” joins values, the source holds several entries; their conditions need not be identical. Equal entries are not always repeated. Where two headings read alike, the source gives them in different places. Some results are limits rather than exact numbers.

One may read the IC50 as the concentration at which inhibition is half-maximal. One may read the IC90 as the concentration needed for an effect of 90%.

The nature of data set [1]: Pharmacokinetics, plasma and tumor concentration by HPLC in HCT-116 tumor-bearing SCID mice. The following applies: for concentration in plasma / concentration in tumor: 2.25 mg/mouse intravenously. The data set is classed as in vivo. As for the experimental part: Samples from HCT-116 tumor-bearing SCID mice were analyzed via high performance liquid chromatography (HPLC) following administration of inventive compositions. […] At different time points following administration of the inventive compounds (up to 24 hours), individual mice were killed and both blood and tumor samples were removed for HPLC analysis.
In particular, a Waters 2690 Separation Module (Waters Corp., Milford, Mass.) connected to a Waters 2487 Dual wavelength absorbance detector controlled by Millennium32 v3.20 was used for separation, detection, data acquisition, integration and quantitation. An external standard calibration method was used to quantify the inventive compounds in each sample. A Symmetry Shield RP18 5 μm ([…]) analytical column (Waters Corp., Milford, Mass.) was used in the separation of each inventive compound. The column temperature was maintained at 30° C. 25 μl of each sample was injected per analytical run.
The mobile phase consisted of 99% water/1% acetonitrile as the initial gradient composition for the inventive composition. A gradient analysis from deionized water to acetonitrile at a flow rate of 1 mL/min for each tested compound is set forth in Tables 9 and 10. The detection wavelength for the inventive composition was 278 nm, and the retention time was 7.8 minutes.
For the in vivo pharmacokinetic trial, 15 mice were inoculated bilaterally and subcutaneously in the inguinal area with 10^7 tumor cells (by a 16-gauge needle), such as HCT-116 cells or trocar-implanted Colon 38 cells. Each of the compounds 15-O-(3′-hydroxy-3′-isopropyl-4′-methylpentanoyl)bruceolide and 15-(3-isopropyl-4-methyl-2-pentenoyl)-bruceolide was administered intravenously at the MTD in 0.25 mL via the tail vein. Each compound was administered to 10 animals when the tumors reached a measurable size (i.e., 80 to 300 mm^3) at a dose determined from the MTD study. The remaining five animals served as time-point controls. At prescribed times thereafter, one animal per time point was sacrificed, and blood and bilateral tumors were harvested for analysis of drug concentrations. Specifically, mice were sacrificed for pharmacological analysis at 1, 5, 15, 30, 60, 120, 240, 360 minutes and 12 and 24 hours following administration of the inventive compounds.

The test system of the next data set is HCT-116 cells. The data set is described as follows: HCT-116 cytotoxicity, viable cell count by trypan blue. The following applies: for IC90/IC50: HCT-116; for IC50 / IC90: Homo sapiens. The data set is classed as cell-based, human.
For data set [2], the system named is Colon 38 (murine colon adenocarcinoma). The experiment in a line: Disk diffusion assay, zone of inhibition, Colon 38; zone differentials, potency and product. The following applies: for zone of inhibition, Colon 38: 1 mg/mL; for Sum: C38ΔL1210 plus C38ΔCFU; for C38ΔL1210: Colon38 vs L1210 leukemia. Set-up: key to C38ΔL1210 / C38ΔCFU: difference of zone of inhibition values, in zone units. The data set is classed as cell-based. An outline of the steps: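 Dissociated Colon 38 cells were plated in soft agar over a hard agar layer; 15 µl of compound dilution dried on a 6.5 mm disk was placed on the plate, and incubation ran 7–10 days. Inhibition zone was measured from disk edge to normal colonies, with the disk diameter = 200 units. Potency = dilution giving 500 units; the product multiplies it by the differentials against L1210 or CFU-GM.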
Background: A growth-free zone around the sample is the usual read-out of agar diffusion tests.

Data set [3] concerns HCT116 (human colorectal carcinoma). The data set is described as follows: Disk diffusion assay, zone of inhibition, HCT116. It is filed as cell-based. The following applies: 1 mg/mL. As for the experimental part: A disk diffusion assay was performed to define the differential cell killing ability of 15-O-(3′-hydroxy-3′-isopropyl-4′-methylpentanoyl)bruceolide. Seven cell types were assayed: L1210 (ATCC CCL-219) (murine leukemia), CCRF-CEM (ATCC CCL-119) (human leukemia), Colon 38 (murine colon adenocarcinoma), HCT116 (ATCC CCL-247) (human colorectal carcinoma), H125 (human lung carcinoma). The murine and human granulocyte/macrophage progenitor cell line (CFU-GM), served as controls.
Colon 38 cells (about 1 gram) were cut into small fragments in 15 mL of Hank's Balanced Salt Solution (HBSS) over a 100-mesh sieve and gently forced through by the scissors with HBSS constantly perfusing the sieve. The resulting material was then drawn into and out of a 5 mL syringe without a needle to further disperse the cell clumps. The cell solution was diluted and plated in 0.3% agarose in DMEM plus 10% heat-inactivated Bovine Calf Serum (BCS). For plating of all of the cell types (except controls), the 60 mm plates were first prepared with a hard agar bottom layer (0.6% agar in RPMI-1640 plus 15% BCS).
HCT116 and H125 cells were maintained in cell culture, and were removed from culture by a trypsin-collagenase-DNAase cocktail. The plating efficiencies of each cell type was sufficiently high that 30,000 cells in 3 mL produced the desired number of colonies (i.e., over 10,000 per plate) in 60 mm plates. This soft agar top layer (0.3% with the serum and media as above) plus the titrated tumor cells were poured into the plates and allowed to solidify.
A 15 μl sample of each compound was dropped onto a 6.5 mm disk (Baxter filter disks). The disks were allowed to dry overnight and then placed close to the edge of a petri dish. Depending upon the cell type, the dishes were incubated for 7 to 10 days, and examined by an inverted stereo-microscope (10×) for measurement of the zone of inhibition. The zone of inhibition was measured from the edge of the filter disk to the beginning of normal-sized colony formation. The diameter of the filter disk, 6.5 mm, was arbitrarily taken as a zone of 200 units. Compounds that were selective for killing solid tumors, as compared to leukemia or normal cells (“solid tumor selective”) were defined as those compounds which produced a difference in zones between solid tumor cells and either normal or leukemia cells of at least 250 units. The results of this analysis are set forth in Table 4, which illustrates the relative diameters of the zones of inhibition by various drugs on the growth of the respective cell types at various drug dilutions.

Where [4] appears, read: no dilution, 15 μl on disk, 6.5 mm = 200 units.
[5] abbreviates: difference between zone of inhibition values.

For the molecule `COC(=O)[C@@]12OC[C@@]34C1[C@@H](OC(=O)CC(O)(C(C)C)C(C)C)C(=O)O[C@@H]3C[C@H]1C(C)=C(O)C(=O)C[C@]1(C)[C@H]4[C@@H](O)[C@@H]2O` (stereo partly shown) [15-O-(3′-hydroxy-3′-isopropyl-4′-methylpentanoyl)bruceolide], the “survival of mouse designated for analysis” value in data set [1] (24 hours post administration, 2.25 mg/mouse intravenously (above the MTD)) is reported as “did not survive”. In addition, the values for the concentration in plasma result in data set [1] (one hour post administration), in data set [1] (six hours post administration) and in data set [1] (two hours post administration) were “approximately 7 μg/mL”, 100 ng/mL and 1500 ng/mL, respectively. For the same molecule, the concentration in tumor result in data set [1] (one hour post administration) is “approximately 7 μg/mL”; in data set [1] (six hours post administration) it was 800 ng/mL; in data set [1] (two hours post administration), “approximately 4 μg/mL”. The same molecule gave an IC90/IC50 in the data set with HCT-116 cells of 35. Moreover, the IC50 with HCT-116 cells (72 h, HCT-116, 3 days with compound, viable cells, by interpolation, read-out: IC50) was 1.9 ng/mL (≈ 0.0032 µM). Moreover, the IC90 in the data set with HCT-116 cells (72 h, HCT-116, 3 days with compound, viable cells, by interpolation, read-out: IC90) was found to be 67 ng/mL (≈ 0.113 µM). The “zone of inhibition, Colon 38” value is greater than 1000 units in data set [2] (dilution 1/10); 750 units and 600 units and 500 units in data set [2] (dilution 1/100); 300 units in data set [2] (dilution 1/400); 400 units and 250 units in data set [2] (dilution 1/1000); greater than 1000 units in data set [2] (setting [4]). For the same molecule, the Sum in data set [2] is 750 and 1450. Moreover, the C38ΔL1210 in data set [2] (setting [5]) is 400 and 550. Also, the “zone of inhibition, H-116” value is 1000 units and 900 units in data set [3] (dilution 1/10); 0 units in data set [3] (dilution 1/1000); greater than 1000 units in data set [3] (setting [4]).

For the molecule `COC(=O)[C@@]12OC[C@@]34C1[C@@H](OC(=O)C=C(C(C)C)C(C)C)C(=O)O[C@@H]3C[C@H]1C(C)=C(O)C(=O)C[C@]1(C)[C@H]4[C@@H](O)[C@@H]2O` (stereo partly shown) [15-O-(3′-isopropyl-4′-methyl-2′-pentenoyl)-bruceolide], the concentration at 0.5 h in data set [1] (SCID, in vivo, 0.5 hour time point, intravenous (FIG. 8: 0.075 mg/mouse)) is 100 ng/mL. In data set [1] (SCID, in vivo, 1 hour time point, intravenous (FIG. 8: 0.075 mg/mouse), below sensitivity of the assay), this molecule registered a concentration at 1 h of less than 50 ng/mL. Besides, the “level in the tumor, FIG. 8” value in data set [1] (all time points, 0.075 mg/mouse intravenously, detection limit 0.05 μg/mL) was “below the detection limit”. The “concentration in tumor samples” value in data set [1] (entire 24 hour sampling period, intravenous (FIG. 8: 0.075 mg/mouse)) is listed as “below the sensitivity level of the assay”. The “concentration in vivo (plasma), FIG. 8” value in data set [1] (time points 1 to 24 hours, 0.075 mg/mouse intravenously, below detection limit) is less than 50 ng/mL. In the data set with HCT-116 cells, this molecule displayed an IC90/IC50 of 7. Also, the IC50 with HCT-116 cells (HCT-116, 72 h) came to 1.5 ng/mL (≈ 0.0026 µM). In the data set with HCT-116 cells (HCT-116, 72 h), this molecule gave an IC90 of 10 ng/mL (≈ 0.0173 µM). Further, the “zone of inhibition, Colon 38” value in data set [2] (dilution 1/10) is greater than 1000 units; in data set [2] (dilution 1/100) it was 850 units and 650 units; in data set [2] (dilution 1/1000) it was 450 units; in data set [2] (setting [4]), greater than 1000 units. The Sum in data set [2] was 750. Moreover, in data set [2] (setting [5]), the C38ΔL1210 was determined as 300. In addition, the C38ΔCFU in data set [2] (difference between zone of inhibition values, Colon38 vs normal cell CFU-GM) is given as 450. In data set [2] (potency multiplied by zone differentials), this molecule registered a Product of 4500. In addition, the “zone of inhibition, H-116” value was 750 units in data set [3] (dilution 1/10), 100 units in data set [3] (dilution 1/100), 0 units in data set [3] (dilution 1/1000) and greater than 1000 units in data set [3] (setting [4]).
